System: KBH5.0 (a variant that overexpresses BCRP)
Assay: Test B. Efflux Assay: relative cytotoxicity, parent KB3-1 vs KBH5.0
Format: cell-based
Conditions: relative cytotoxicity between parent KB3-1 and variant KBH5.0 cell lines
Procedure: The ability of a compound described herein to be actively transported can be determined using pharmacological models that are well known in the art, for example, using a model like test B described below.
The cytotoxicity of the representative compounds of the invention were also tested against cell line KB3-1 (parent cell line), KBV-1 (a variant that overexpresses efflux transporter MDR1) and KBH5.0 (a variant that overexpresses BCRP). Differences in the relative cytotoxicity between the parent and variant cell lines may be indicative of a compound that is a substrate for an efflux transporter. […] Accordingly, compounds of the invention may be useful to treat tumors that are resistant to other anticancer agents, including anticancer agents that are susceptible to efflux by BCRP (e.g. anthracyclines, mitoxantrone, topotecan, irinotecan, bisanthrone, doxorubicin, daunorubicin, and epirubin.

SMILES: COc1cc2c(=O)n(CCN(C)C(=O)C3CCN(C)CC3)c3c4cc5c(cc4ncc3c2cc1OC)OCO5 [Example 2]
- substrate for efflux transporter BCRP: not a substrate for BCRP

From patent US11091498B2, “Topoisomerase poisons” (Rutgers, The State University of New Jersey, priority 2016, dated 2021)
